The values that follow come from US20250353891A1 (MEDIMMUNE LIMITED, priority 2022, published 2025).

A word on the EC50: it is the concentration that produces a half-maximal response.

In assay [1] the target is human glucagon receptor (hGCGR) (Homo sapiens, UniProt P47871). The assay is described as follows: cAMP production (HTRF) in CHO cells expressing hGCGR. Further details: expressed in transfected cells. Type of assay: cell-based. Conditions: cAMP in CHO hGCGR cells, geometric mean, read-out: hGluc-R EC50. A digest of the protocol:
(§1)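 Potency values represent EC50 from 4-parameter logistic curves of HTRF % Delta F signal. Receptor-expressing CHO cells (hGCGR 2×10^5 cells/mL, hGLP-1R 1×10^5 cells/mL) were exposed for 30 min at room temperature before two-step cAMP detection.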
Background: Changes in cAMP serve as a functional read-out for many G protein-coupled receptors.

Assay [2] concerns the target human GLP-1 receptor (hGLP-1R) (Homo sapiens, UniProt P43220). The assay is described as follows: cAMP production (HTRF) in CHO cells expressing hGLP-1R. Type of assay: cell-based. Further details: expressed in transfected cells. As to conditions: for EC50: cAMP in CHO hGLP-1R cells, geometric mean, read-out: hGLP-1R EC50; for % Relative Potency Ratio: % GLP-1R activity relative to GLP-1 / % GlucR activity relative to glucagon. In a few lines: as §1

The mark [3] stands for this setting: Table 6, peptides modified at position 17.
Setting [4] is: Table 7, peptides modified at position 20.

Where “and” joins values, the source holds several entries; their conditions need not be identical. Identical values can stand only once. Like-named read-outs stand apart in the source and are kept apart here. Starred links: 1 amine or outer side, 2 acyl side, 3 side chain; linkers in the order of their positions; H or OH if unused. Non-standard residues stand in square brackets, D forms with d. Residues, ends and D or L forms follow the SMILES beside them. Groups on a side chain read outwards from the residue. *: point of attachment. C18 diacid = O=C(O)CCCCCCCCCCCCCCCCC(=O)*; γGlu = O=C(O)[C@H](CCC(=O)[*:2])N[*:1]; αMeF = C[C@](N)(Cc1ccccc1)C(=O)O; AEEA = NCCOCCOCC(=O)O; Aib = CC(C)(N)C(=O)O

human GLP-1 receptor (hGLP-1R), sequence (P43220 24-463): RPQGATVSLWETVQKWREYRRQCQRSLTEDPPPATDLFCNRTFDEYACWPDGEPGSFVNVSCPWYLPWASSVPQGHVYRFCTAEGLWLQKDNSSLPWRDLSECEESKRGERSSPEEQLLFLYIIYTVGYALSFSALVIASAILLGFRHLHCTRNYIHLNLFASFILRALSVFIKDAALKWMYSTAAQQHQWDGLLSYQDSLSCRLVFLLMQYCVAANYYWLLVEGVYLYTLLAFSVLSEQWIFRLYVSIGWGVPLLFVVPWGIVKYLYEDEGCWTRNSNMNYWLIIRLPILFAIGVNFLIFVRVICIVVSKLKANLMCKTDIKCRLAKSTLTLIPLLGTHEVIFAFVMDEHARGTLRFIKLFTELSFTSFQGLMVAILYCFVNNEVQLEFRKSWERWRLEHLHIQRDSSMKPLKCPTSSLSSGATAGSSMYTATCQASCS
human glucagon receptor (hGCGR), sequence (P47871 26-477): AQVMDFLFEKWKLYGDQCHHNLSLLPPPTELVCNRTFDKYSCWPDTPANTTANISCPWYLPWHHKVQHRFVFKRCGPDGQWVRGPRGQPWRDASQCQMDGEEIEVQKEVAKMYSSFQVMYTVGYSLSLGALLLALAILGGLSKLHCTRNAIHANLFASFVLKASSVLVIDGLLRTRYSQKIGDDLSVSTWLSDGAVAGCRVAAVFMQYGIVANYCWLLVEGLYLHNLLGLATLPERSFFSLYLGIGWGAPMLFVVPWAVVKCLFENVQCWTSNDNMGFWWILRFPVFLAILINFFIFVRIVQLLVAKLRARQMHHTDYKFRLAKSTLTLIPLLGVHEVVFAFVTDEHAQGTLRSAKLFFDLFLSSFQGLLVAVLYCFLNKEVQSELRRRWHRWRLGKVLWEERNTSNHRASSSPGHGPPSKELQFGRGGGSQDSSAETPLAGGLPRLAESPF

As for `CC[C@H](C)[C@H](NC(=O)C(C)(C)NC(=O)[C@H](CCC(=O)O)NC(=O)[C@@H](NC(=O)[C@](C)(Cc1ccccc1)NC(=O)[C@H](CC(=O)O)NC(=O)[C@H](CCCNC(=N)N)NC(=O)[C@H](C)NC(=O)[C@H](C)NC(=O)[C@H](CCCCNC(=O)COCCOCCNC(=O)COCCOCCNC(=O)CC[C@H](NC(=O)CC[C@H](NC(=O)CCCCCCCCCCCCCCCCC(=O)O)C(=O)O)C(=O)O)NC(=O)[C@H](CO)NC(=O)[C@H](CC(=O)O)NC(=O)[C@H](CC(C)C)NC(=O)[C@](C)(Cc1ccccc1)NC(=O)[C@H](CCCCN)NC(=O)[C@H](CO)NC(=O)[C@@H](NC(=O)[C@H](CC(=O)O)NC(=O)[C@H](CO)NC(=O)[C@@H](NC(=O)[C@](C)(Cc1ccccc1)NC(=O)[C@H](CO)NC(=O)CNC(=O)[C@H](Cc1c[nH]cn1)NC(=O)C(C)(C)NC(=O)[C@@H](N)Cc1c[nH]cn1)[C@@H](C)O)C(C)C)C(C)C)C(=O)N[C@@H](C)C(=O)N[C@@H](CC(N)=O)C(=O)N[C@H](C(N)=O)[C@@H](C)O` [Peptide 20] (H-H[Aib]HGS[αMeF]TSDVSK[αMeF]LDSK([AEEA-AEEA-γGlu-γGlu-C18 diacid])AARD[αMeF]VE[Aib]IANT-NH2; N-terminus assumed), the EC50 in assay [1] (setting [3]) was 0.136 nM; in assay [2] (setting [3]) it was 0.152 nM. Besides, the “% Relative Potency Ratio” value in assay [2] (Table 6) was 1.8.
On the same counts, the results for `CC(C)C[C@H](NC(=O)[C@H](Cc1c[nH]c2ccccc12)NC(=O)[C@H](CCCNC(=N)N)NC(=O)[C@@H](NC(=O)[C@H](Cc1ccccc1)NC(=O)[C@H](CC(=O)O)NC(=O)[C@H](CCC(N)=O)NC(=O)[C@H](C)NC(=O)[C@H](CCCNC(=N)N)NC(=O)[C@H](CCCCNC(=O)COCCOCCNC(=O)COCCOCCNC(=O)CC[C@H](NC(=O)CCCCCCCCCCCCCCCCC(=O)O)C(=O)O)NC(=O)[C@@H](NC(=O)[C@H](CC(=O)O)NC(=O)[C@H](CC(C)C)NC(=O)[C@](C)(Cc1ccccc1)NC(=O)[C@H](CCCCN)NC(=O)[C@H](CO)NC(=O)[C@@H](NC(=O)[C@H](CC(=O)O)NC(=O)[C@H](CO)NC(=O)[C@@H](NC(=O)[C@H](Cc1ccccc1)NC(=O)[C@@H](NC(=O)CNC(=O)[C@H](CCC(N)=O)NC(=O)C(C)(C)NC(=O)[C@@H](N)Cc1c[nH]cn1)[C@@H](C)O)[C@@H](C)O)C(C)C)[C@@H](C)O)C(C)C)C(=O)N[C@@H](CC(C)C)C(=O)N[C@@H](CCCNC(=N)N)C(=O)NC(C)(C)C(=O)N[C@@H](C)C(=O)O` [Peptide 497] (H-H[Aib]QGTFTSDVSK[αMeF]LDTK([AEEA-AEEA-γGlu-C18 diacid])RAQDFVRWLLR[Aib]A-OH) are 0.118 nM, 0.0374 nM and 6.3.
Take `CC[C@H](C)[C@H](NC(=O)C(C)(C)NC(=O)[C@H](CCC(N)=O)NC(=O)[C@@H](NC(=O)[C@](C)(Cc1ccccc1)NC(=O)[C@H](CC(=O)O)NC(=O)[C@H](CCCCNC(=O)COCCOCCNC(=O)COCCOCCNC(=O)CC[C@H](NC(=O)CCCCCCCCCCCCCCCCC(=O)O)C(=O)O)NC(=O)[C@H](C)NC(=O)[C@H](C)NC(=O)[C@H](CCCNC(=N)N)NC(=O)[C@H](CO)NC(=O)[C@H](CC(=O)O)NC(=O)[C@H](CC(C)C)NC(=O)[C@](C)(Cc1ccccc1)NC(=O)[C@H](CCCCN)NC(=O)[C@H](CO)NC(=O)[C@@H](NC(=O)[C@H](CC(=O)O)NC(=O)[C@H](CO)NC(=O)[C@@H](NC(=O)[C@](C)(Cc1ccccc1)NC(=O)[C@H](CO)NC(=O)CNC(=O)[C@@H](CCC(N)=O)NC(=O)[C@H](CO)NC(=O)[C@@H](N)Cc1c[nH]cn1)[C@@H](C)O)C(C)C)C(C)C)C(=O)N[C@@H](C)C(=O)N[C@@H](CC(N)=O)C(=O)N[C@H](C(N)=O)[C@@H](C)O` [Peptide 326] (H-HS[dQ]GS[αMeF]TSDVSK[αMeF]LDSRAAK([AEEA-AEEA-γGlu-C18 diacid])D[αMeF]VQ[Aib]IANT-NH2): the EC50 was over 25.6 nM in assay [1] (setting [4]) and 6.74 nM in assay [2] (setting [4]).
For the compound `CC[C@H](C)[C@H](NC(=O)[C@H](CO)NC(=O)[C@H](CCC(=O)O)NC(=O)[C@@H](NC(=O)[C@](C)(Cc1ccccc1)NC(=O)[C@H](CC(=O)O)NC(=O)[C@H](CCCCNC(=O)COCCOCCNC(=O)COCCOCCNC(=O)CC[C@H](NC(=O)CCCCCCCCCCCCCCCCC(=O)O)C(=O)O)NC(=O)[C@H](C)NC(=O)[C@H](C)NC(=O)[C@H](CCCNC(=N)N)NC(=O)[C@H](CO)NC(=O)[C@H](CC(=O)O)NC(=O)[C@H](CC(C)C)NC(=O)[C@](C)(Cc1ccccc1)NC(=O)[C@H](CCCCN)NC(=O)[C@H](CO)NC(=O)[C@@H](NC(=O)[C@H](CC(=O)O)NC(=O)[C@H](CO)NC(=O)[C@@H](NC(=O)[C@](C)(Cc1ccccc1)NC(=O)[C@H](CO)NC(=O)CNC(=O)[C@H](Cc1c[nH]cn1)NC(=O)C(C)(C)NC(=O)[C@@H](N)Cc1c[nH]cn1)[C@@H](C)O)C(C)C)C(C)C)C(=O)N[C@@H](C)C(=O)N[C@@H](CC(N)=O)C(=O)N[C@H](C(N)=O)[C@@H](C)O` [Peptide 245] (H-H[Aib]HGS[αMeF]TSDVSK[αMeF]LDSRAAK([AEEA-AEEA-γGlu-C18 diacid])D[αMeF]VESIANT-NH2), the values for the EC50 in assay [1] (setting [4]) and in assay [2] (setting [4]) were 0.0627 nM and 0.11 nM, respectively. In assay [2] (Table 7), the “% Relative Potency Ratio” value was found to be 1.1.
As for `CC(C)C[C@H](NC(=O)[C@H](Cc1c[nH]c2ccccc12)NC(=O)[C@H](C)NC(=O)[C@@H](NC(=O)[C@H](Cc1ccccc1)NC(=O)[C@H](CC(=O)O)NC(=O)[C@H](CCCNC(=N)N)NC(=O)[C@H](C)NC(=O)[C@H](CCCNC(=N)N)NC(=O)[C@H](CCCCNC(=O)COCCOCCNC(=O)COCCOCCNC(=O)CC[C@H](NC(=O)CCCCCCCCCCCCCCCCC(=O)O)C(=O)O)NC(=O)[C@H](C)NC(=O)[C@H](CCC(=O)O)NC(=O)[C@H](CC(C)C)NC(=O)[C@](C)(Cc1ccccc1)NC(=O)[C@H](CCCCN)NC(=O)[C@H](CO)NC(=O)[C@@H](NC(=O)[C@H](CC(=O)O)NC(=O)[C@H](CO)NC(=O)[C@@H](NC(=O)[C@H](Cc1ccccc1)NC(=O)[C@@H](NC(=O)CNC(=O)[C@H](CCC(N)=O)NC(=O)C(C)(C)NC(=O)[C@@H](N)Cc1c[nH]cn1)[C@@H](C)O)[C@@H](C)O)C(C)C)C(C)C)C(=O)N[C@@H](CC(C)C)C(=O)N[C@@H](CCC(=O)O)C(=O)NC(C)(C)C(=O)NCC(=O)O` [Peptide 161] (H-H[Aib]QGTFTSDVSK[αMeF]LEAK([AEEA-AEEA-γGlu-C18 diacid])RARDFVAWLLE[Aib]G-OH), the EC50 in assay [1] (setting [3]) is 0.188 nM and 1.03 nM; in assay [2] (setting [3]) it was 0.0172 nM and 0.0509 nM. Further, the “% Relative Potency Ratio” value in assay [2] (Table 6) is 21.6 and 40.0.
For the compound `CC[C@H](C)[C@H](NC(=O)[C@H](Cc1c[nH]c2ccccc12)NC(=O)[C@H](CCC(N)=O)NC(=O)[C@@H](NC(=O)[C@](C)(Cc1ccccc1)NC(=O)[C@H](CC(=O)O)NC(=O)[C@H](CCCCNC(=O)COCCOCCNC(=O)COCCOCCNC(=O)CC[C@H](NC(=O)CCCCCCCCCCCCCCCCC(=O)O)C(=O)O)NC(=O)[C@H](C)NC(=O)[C@H](C)NC(=O)[C@H](CCCNC(=N)N)NC(=O)[C@H](CO)NC(=O)[C@H](CC(=O)O)NC(=O)[C@H](CC(C)C)NC(=O)[C@](C)(Cc1ccccc1)NC(=O)[C@H](CCCCN)NC(=O)[C@H](CO)NC(=O)[C@@H](NC(=O)[C@H](CC(=O)O)NC(=O)[C@H](CO)NC(=O)[C@@H](NC(=O)[C@](C)(Cc1ccccc1)NC(=O)[C@H](CO)NC(=O)CNC(=O)[C@H](Cc1c[nH]cn1)NC(=O)C(C)(C)NC(=O)[C@@H](N)Cc1c[nH]cn1)[C@@H](C)O)C(C)C)C(C)C)C(=O)N[C@@H](C)C(=O)N[C@@H](CC(N)=O)C(=O)N[C@H](C(N)=O)[C@@H](C)O` [Peptide 288] (H-H[Aib]HGS[αMeF]TSDVSK[αMeF]LDSRAAK([AEEA-AEEA-γGlu-C18 diacid])D[αMeF]VQWIANT-NH2), the EC50 in assay [1] (setting [4]) turned out to be 0.0269 nM; in assay [2] (setting [4]) it was 0.0427 nM. The “% Relative Potency Ratio” value in assay [2] (Table 7) was determined as 1.2.
For the compound `CC(C)C[C@H](NC(=O)[C@H](Cc1c[nH]c2ccccc12)NC(=O)[C@H](CCCNC(=N)N)NC(=O)[C@@H](NC(=O)[C@H](Cc1ccccc1)NC(=O)[C@H](CC(=O)O)NC(=O)[C@H](CCC(N)=O)NC(=O)[C@H](C)NC(=O)[C@H](CCCNC(=N)N)NC(=O)[C@H](CCCCNC(=O)COCCOCCNC(=O)COCCOCCNC(=O)CC[C@H](NC(=O)CCCCCCCCCCCCCCCCC(=O)O)C(=O)O)NC(=O)[C@H](CO)NC(=O)[C@H](CCC(=O)O)NC(=O)[C@H](CC(C)C)NC(=O)[C@](C)(Cc1ccccc1)NC(=O)[C@H](CCCCN)NC(=O)[C@H](CO)NC(=O)[C@@H](NC(=O)[C@H](CC(=O)O)NC(=O)[C@H](CO)NC(=O)[C@@H](NC(=O)[C@H](Cc1ccccc1)NC(=O)[C@@H](NC(=O)CNC(=O)[C@H](CCC(N)=O)NC(=O)C(C)(C)NC(=O)[C@@H](N)Cc1c[nH]cn1)[C@@H](C)O)[C@@H](C)O)C(C)C)C(C)C)C(=O)N[C@@H](CCC(=O)O)C(=O)N[C@@H](C)C(=O)NC(C)(C)C(=O)NCC(=O)O` [Peptide 415] (H-H[Aib]QGTFTSDVSK[αMeF]LESK([AEEA-AEEA-γGlu-C18 diacid])RAQDFVRWLEA[Aib]G-OH; N-terminus assumed), the values for the EC50 in assay [1] (setting [3]) and in assay [2] (setting [3]) were 0.301 nM and 0.0147 nM, respectively. Also, the “% Relative Potency Ratio” value in assay [2] (Table 6) stood at 40.6.
